Source: patent US20230235301A1, “Compounds and Methods for Treating, Ameliorating, or Preventing Herpes Ocular Keratitis” (THE TRUSTEES OF THE UNIVERSITY OF PENNSYLVANIA, priority 2020, published 2023)
Where two headings read alike, the source gives them in different places. Positions of bridges follow the written chain, without caps; N, C: chain ends. Non-standard residues stand in square brackets, D forms with d. Residues, ends and D or L forms follow the SMILES beside them. No end group written: not given here. S5 = C=CCCC[C@](C)(N)C(=O)O

How the values were obtained:
HSV-1 = assay: microbe, parasite or virus in culture; format: cell-based
Procedure: Cells with ~90% confluence in 48-well plates were infected by absorbing virus (~100 PFU/well) for 1 h in 100 µL growth medium followed by adding 200 µL culture medium containing DMSO vehicle or serially diluted peptides or Acyclovir (Tocris Bioscience-Fisher Scientific) to each well of the plate. DMSO was maintained at 1% throughout the treatment. Cells were subsequently fixed and stained with 300 µL PBS containing 4% formaldehyde and 0.2% crystal violet overnight at room temperature. HSV-1 plaques were quantified at ~55 h post-infection of Vero cells. VV (WR strain) infection of BSC-1 cells was analyzed for plaque formation after 24 h. The plaque reduction assays were performed in duplicate and independently repeated twice. Cells were stained, and plaques counted under a dissecting microscope. Data were plotted on the GraphPad Prism.
Standard viral plaque reduction assays were conducted in Vero cells to determine if any of the five stapled peptides (S-pep1/3/4/7/8) that were able to block processive DNA synthesis, could also block HSV-1 infection. To minimize possible interference of HSV-1 cell attachment and entry by the peptides, cells were first infected by absorbing the virus for 1 h, followed by treatment with peptides at serial dilutions. […] The EC50 values of both S-pep3 and S-pep8 were approximately 100 µM (FIG. 15C and FIG. 15F). Additionally, S-pep4 was toxic at 12.5 µM, which precluded further optimization.

[1] = biological target: HSV-1 UL30 DNA Polymerase and UL42 Processivity Factor (Human herpesvirus 1, UniProt P10226); assay: In vitro processive DNA synthesis assay (ELISA-based Rapid Plate Assay); format: biochemical; details: for IC50, µM* (HSV1 UL30+UL42): inhibition of HSV-1 processive DNA synthesis in vitro by UL30 and UL42
Procedure: The assay was performed by the enzyme-linked immunosorbent assay (ELISA)-based Rapid Plate Assay (J. Virol. Methods 2000, 88:219-225; Methods Mol. Biol. 2005, 292:481-492; J. Med. Chem. 2008, 51:6563-6570), using in vitro translated viral DNA polymerase and processivity factor.
Briefly, the assay comprised a 100-nucleotide single-stranded DNA template that has biotin covalently linked to the 5′ end. The biotin-labeled oligonucleotide template was immobilized onto streptavidin, which was coated onto each well of a micro-titer plate. An oligonucleotide primer (15mer) was annealed to the 3′ end of the biotin-labeled DNA template. HSV-1 UL-30 and HSV-1 UL-42 (either in vitro translated or purified) were added and incubated with serial dilutions of the stapled peptides. DNA synthesis was measured by direct incorporation of the 4 dNTPs as well as the signal nucleotide, digoxigenin-dUTP (1:5, dig-dUTP:dTTP). A peroxidase-conjugated anti-digoxigenin antibody that recognizes the newly synthesized DNA generated a colorimetric reaction that was quantified with a plate reader at 405 nm.
In certain non-limiting embodiments, the shown staples (or tethers), which provide rigidity, had linked-spacing of one full turn (i,i+4) or two full turns (i,i+7) of the helix to stay in helical register (3.6 amino acids/turn). In other embodiments, the staple was on the solvation side of the helix. Residues on the opposite side contact the PF target protein UL42. These UL42 residues are D63, R64 and K289 (FIGS. 13A-13C). Hydrogen bonds between residues of UL42 and C-Pol are shown as dotted lines. The IC50 values recited herein were quantitated using the assay described in U.S. Pat. No. 6,204,028, which is incorporated herein in its entirety by reference (FIG. 14).

[2] = biological target: T1, HSV-1 Processivity Factor (UL42) (HSV-1 (strain KOS), UniProt P10226 1-488); assay: cell-based or functional assay
T1 sequence: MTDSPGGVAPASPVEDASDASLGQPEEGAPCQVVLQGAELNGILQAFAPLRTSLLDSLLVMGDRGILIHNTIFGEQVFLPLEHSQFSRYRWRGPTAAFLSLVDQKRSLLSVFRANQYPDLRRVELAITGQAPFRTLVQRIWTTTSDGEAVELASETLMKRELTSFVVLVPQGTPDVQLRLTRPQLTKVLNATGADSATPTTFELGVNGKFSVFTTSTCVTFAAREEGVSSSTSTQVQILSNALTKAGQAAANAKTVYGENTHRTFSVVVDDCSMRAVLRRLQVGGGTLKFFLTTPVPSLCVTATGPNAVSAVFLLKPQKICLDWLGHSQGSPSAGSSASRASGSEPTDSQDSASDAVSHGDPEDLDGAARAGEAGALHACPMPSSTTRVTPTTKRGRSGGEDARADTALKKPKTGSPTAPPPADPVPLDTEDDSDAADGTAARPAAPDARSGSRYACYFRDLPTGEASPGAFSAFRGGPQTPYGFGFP

**Q.** Which EC50 (HSV-1; Human alphaherpesvirus 1, Vero cells, peptides added after 1 h virus absorption, plaques counted at ~55 h, read-out: EC50, inhibition of HSV-1 plaque formation) does the source give for `Nc1nc2c(ncn2COCCO)c(=O)[nH]1` [Acyclovir, reference compound] here?
**A.** 0.81 µM

**Q.** What does the source list for `CSCC[C@H](NC(=O)[C@H](CCCNC(=N)N)NC(=O)[C@H](CCCNC(=N)N)NC(=O)[C@@H](NC(=O)[C@H](CCC(=O)O)NC(C)=O)[C@@H](C)O)C(=O)N[C@@H](CC(C)C)C(=O)N[C@@H](Cc1c[nH]cn1)C(=O)N[C@@H](CCCNC(=N)N)C(=O)N[C@@H](C)C(=O)N[C@@H](Cc1ccccc1)C(=O)N[C@@H](CC(=O)O)C(=O)N[C@H](C(=O)N[C@@H](CC(C)C)C(=O)N[C@@H](C)C(=O)O)[C@@H](C)O` [N-pep, Ac-ETRRMLHRAFDTLA, reference compound]?
**A.** EC50 (HSV-1; 1 h): > 200 µM; IC50 [1]: > 200 µM; IC50, µM* (HSV1 UL30+UL42) ([1]; listed as Non-stapled): no inhibition; IC50, µM* (HSV1 UL30+UL42) ([1]; listed as native (unstapled) C-Pol peptide): fails to inhibit

**Q.** How did the EC50 (HSV-1; 1 h) turn out when `CC(=O)N[C@@]1(C)CCCC=CCCC[C@@](C)(C(=O)N[C@@H](CC(C)C)C(=O)N[C@@H](Cc2c[nH]cn2)C(=O)N[C@@H](CCCNC(=N)N)C(=O)N[C@@H](C)C(=O)N[C@@H](Cc2ccccc2)C(=O)N[C@@H](CC(=O)O)C(=O)N[C@H](C(=O)N[C@@H](CC(C)C)C(=O)N[C@@H](C)C(=O)O)[C@@H](C)O)NC(=O)[C@H](CCCNC(=N)N)NC(=O)[C@H](CCCNC(=N)N)NC(=O)[C@H]([C@@H](C)O)NC1=O` [S-pep1, Ac-XTRRXLHRAFDTLA] (Ac-[S5]TRR[S5]LHRAFDTLA-OH; staple 1-5; C-terminus assumed) was run?
**A.** 43 µM

**Q.** And the “IC50, µM* (HSV1 UL30+UL42)” value [1]?
**A.** successfully inhibits

**Q.** Which IC50 [1] does the source give for `CC(=O)N[C@@]1(C)CCCC=CCCC[C@@](C)(C(=O)N[C@@H](CC(C)C)C(=O)N[C@@H](Cc2c[nH]cn2)C(=O)N[C@@H](CCCNC(=N)N)C(=O)N[C@@H](C)C(=O)N[C@@H](Cc2ccccc2)C(N)=O)NC(=O)[C@H](CCCNC(=N)N)NC(=O)[C@H](CCCNC(=N)N)NC(=O)[C@H]([C@@H](C)O)NC1=O` [S-pep2, Ac-XTRRXLBRAF-NH2] (Ac-[S5]TRR[S5]LHRAF-NH2; staple 1-5) here?
**A.** > 200 µM

**Q.** With `CC(=O)N[C@@H](C)C(=O)N[C@@H](CCC(=O)O)C(=O)N[C@@]1(C)CCCC=CCCC[C@@](C)(C(=O)N[C@@H](CC(C)C)C(=O)N[C@@H](Cc2c[nH]cn2)C(=O)N[C@@H](CCCNC(=N)N)C(=O)N[C@@H](C)C(=O)N[C@@H](Cc2ccccc2)C(=O)N[C@@H](CC(=O)O)C(=O)N[C@H](C(=O)N[C@@H](CC(C)C)C(=O)N[C@@H](C)C(=O)O)[C@@H](C)O)NC(=O)[C@H](CCCNC(=N)N)NC(=O)[C@H](CCCNC(=N)N)NC(=O)[C@H]([C@@H](C)O)NC1=O` [S-pep3, Ac-AEXTRRXLHRAFDTLA] (Ac-AE[S5]TRR[S5]LHRAFDTLA-OH; staple 3-7; C-terminus assumed) as the molecule, how does the EC50 (HSV-1; 1 h) read?
**A.** ~100 µM

**Q.** What does the source list for `CSCC[C@@H]1NC(=O)[C@H](CCCNC(=N)N)NC(=O)[C@H](CCCNC(=N)N)NC(=O)[C@@](C)(NC(C)=O)CCCC=CCCC[C@@](C)(C(=O)N[C@@H](Cc2c[nH]cn2)C(=O)N[C@@H](CCCNC(=N)N)C(=O)N[C@@H](C)C(=O)N[C@@H](Cc2ccccc2)C(=O)N[C@@H](CC(=O)O)C(=O)N[C@H](C(=O)N[C@@H](CC(C)C)C(=O)N[C@@H](C)C(=O)O)[C@@H](C)O)NC1=O` [S-pep5, Ac-XRRMXHRAFDTLA] (Ac-[S5]RRM[S5]HRAFDTLA-OH; staple 1-5)?
**A.** IC50 [1]: > 200 µM; IC50, µM* (HSV1 UL30+UL42) [1]: failed to inhibit

**Q.** For `CC(=O)N[C@@H](CCC(=O)O)C(=O)N[C@H](C(=O)N[C@@H](CCCNC(=N)N)C(=O)N[C@@H](CCCNC(=N)N)C(=O)N[C@@]1(C)CCCC=CCCC[C@@](C)(C(=O)N[C@@H](Cc2ccccc2)C(=O)N[C@@H](CC(=O)O)C(=O)N[C@H](C(=O)N[C@@H](CC(C)C)C(=O)N[C@@H](C)C(=O)O)[C@@H](C)O)NC(=O)[C@H](CCCNC(=N)N)NC(=O)[C@H](Cc2c[nH]cn2)NC(=O)[C@H](CC(C)C)NC1=O)[C@@H](C)O` [S-pep7, Ac-ETRRXLHRXFDTLA] (Ac-ETRR[S5]LHR[S5]FDTLA-OH; staple 5-9; C-terminus assumed), which EC50 (HSV-1; 1 h) is on record?
**A.** 35.5 µM

**Q.** How did the EC50 (HSV-1; 1 h) turn out when `CSCC[C@H](NC(=O)[C@H](CCCNC(=N)N)NC(=O)[C@H](CCCNC(=N)N)NC(=O)[C@@H](NC(=O)[C@H](CCC(=O)O)NC(C)=O)[C@@H](C)O)C(=O)N[C@@H](CC(C)C)C(=O)N[C@@H](Cc1c[nH]cn1)C(=O)N[C@@]1(C)CCCC=CCCC[C@@](C)(C(=O)N[C@@H](CC(C)C)C(=O)N[C@@H](C)C(=O)O)NC(=O)[C@H](CC(=O)O)NC(=O)[C@H](Cc2ccccc2)NC(=O)[C@H](C)NC1=O` [S-pep8, Ac-ETRRMLHXAFDXLA] (Ac-ETRRMLH[S5]AFD[S5]LA-OH; staple 8-12; C-terminus assumed) was run?
**A.** ~100 µM

B1: S-pep7B (peptide)
peptide: Ac-VVTRR[S5]LHR[S5]FDTLA
modifications: staple 6-10
**Q.** B1 was tested. Which “IC50, µM (HSV1 UL30+UL42); HSV-1 DNA synthesis inhibition” value (shortened to “IC50 … HSV-1 DNA synthesis inhibition”) [2] did it give?
**A.** 1 µM

B2: S-pep7 (peptide)
peptide: Ac-ETRR[S5]LHR[S5]FDTLA
modifications: staple 5-9
**Q.** For B2, which “IC50 … HSV-1 DNA synthesis inhibition” value [2] is on record?
**A.** 5.5 µM

B3: S-pep3 (peptide)
peptide: Ac-AE[S5]TRR[S5]LHRAFDTLA
modifications: staple 3-7
**Q.** B3 was tested. Which “IC50 … HSV-1 DNA synthesis inhibition” value [2] did it give?
**A.** 12.7 µM

B4: S-pep1 (peptide)
peptide: Ac-[S5]TRR[S5]LHRAFDTLA
modifications: staple 1-5
**Q.** B4 was tested. Which “IC50 … HSV-1 DNA synthesis inhibition” value [2] did it give?
**A.** 12 µM

B5: S-pep7C (peptide)
peptide: Ac-RTRR[S5]LHR[S5]FDTLA
modifications: staple 5-9
**Q.** Which “IC50 … HSV-1 DNA synthesis inhibition” value [2] does the source give for B5 here?
**A.** 1.7 µM

B6: S-pep7A (peptide)
peptide: Ac-VTRR[S5]LHR[S5]FDTLA
modifications: staple 5-9
**Q.** B6 was tested. Which “IC50 … HSV-1 DNA synthesis inhibition” value [2] did it give?
**A.** 1.7 µM

B7: S-pep7D (peptide)
peptide: Ac-RRTRR[S5]LHR[S5]FDTLA
modifications: staple 6-10
**Q.** For B7, which “IC50 … HSV-1 DNA synthesis inhibition” value [2] is on record?
**A.** 2 µM

B8: S-pep5 (peptide)
peptide: Ac-[S5]RRM[S5]HRAFDTLA
modifications: staple 1-5
**Q.** Which “IC50 … HSV-1 DNA synthesis inhibition” value [2] does the source give for B8 here?
**A.** > 200 µM

B9: S-pep2 (peptide)
peptide: Ac-[S5]TRR[S5]LHRAF-NH2
modifications: staple 1-5
**Q.** With B9 as the molecule, how does the “IC50 … HSV-1 DNA synthesis inhibition” value [2] read?
**A.** > 200 µM

B10: S-pep8 (peptide)
peptide: Ac-ETRRMLH[S5]AFD[S5]LA
modifications: staple 8-12
**Q.** B10 was tested. Which “IC50 … HSV-1 DNA synthesis inhibition” value [2] did it give?
**A.** 20.7 µM
